In patent US11708357B2, “Crystal form of pyrrolidinyl urea derivative and application thereof” (ZHANGZHOU PIEN TZE HUANG PHARMACEUTICAL CO., LTD., priority 2020, dated 2023):

Legend:
[1] = In vivo pharmacokinetic study in rats after single administration; conditions: male, Sprague Dawley, rat, plasma, 300 mg/kg, 300 mpk oral administration
Procedure: Male SD rats were used as test animals, and the concentration of the compound in blood was determined after single administration to evaluate the pharmacokinetic behavior.
Sprague Dawley rats (male, 200-300 g, 7-9 weeks, Shanghai Charles River Laboratory Animal Co., Ltd.)
The pharmacokinetic characteristics of the test compound in rodents after intravenous injection and oral administration were tested by standard protocols, in the experiment, the test compound was prepared into a clear solution or homogeneous suspension, and administered to the rats by single intravenous injection and oral administration. In the intravenous injection group, the menstruum was a certain proportion of ethanol and physiological saline solution or a certain proportion of dimethyl sulfoxide in HP-β cyclodextrin solution (the pH was adjusted to 3-4), the mixture was vortexed and stirred to prepare 1 mg/mL clear solution, then filtered with microporous membrane for later use; in the oral administration group, the menstruum was a certain proportion of sodium carboxymethyl cellulose solution or a certain proportion of dimethyl sulfoxide in HP-β cyclodextrin solution (the pH was adjusted to about 4), after the test compound was mixed with the solvent, the mixture was vortexed and stirred to prepare 30 mg/mL homogeneous suspension for later use. After 2 mg/kg intravenous administration or 300 mg/kg oral administration to rats, a certain amount of whole blood samples were collected, centrifuged at 3000 g for 15 minutes, the supernatant was separated to obtain the plasma samples; then an acetonitrile solution containing internal standard with a volume 3 times that of the plasma sample was added to precipitate proteins, and then centrifuged; the supernatant was separated, and water with a volume twice that of the supernatant was added to the supernatant, which was then centrifuged again; the supernatant was collected for analysis; LC-MS/MS analysis method was used to quantitatively analyze the blood drug concentration, and Phoenix WinNonlin software (Pharsight, USA) was used to calculate the pharmacokinetic parameters, such as peak concentration, time to peak concentration, clearance rate, half-life, area under the concentration-time curve, bioavailability, etc.
(§1) Among them, C0 is the initial concentration, T1/2 is the elimination half-life, Vdss is the steady-state apparent volume of distribution, Cl is the total clearance rate, AUC0-inf is the area under the plasma drug concentration-time curve from time 0 to infinity, Cmax is the peak concentration, Tmax is the time to peak concentration.

[2] = In vivo pharmacokinetic study in beagle dogs after single administration; conditions: male, dog, plasma, 10 mg/kg, 10 mpk oral administration
Procedure: Male beagle dogs were used as test animals, the concentration of the compound in blood after single administration was determined to evaluate the pharmacokinetic behavior.
Beagle dogs (Male, 6-12 kg, more than 6 months, Beijing Marshall Biotechnology Co., Ltd.).
The objective of the test was to study the pharmacokinetic characteristics of the test compound in non-rodent after intravenous injection and oral administration. In the experiment, the test compound was prepared into a clear solution or homogeneous suspension and administered to the beagle dogs by single intravenous injection or oral administration. In the intravenous injection group, the menstruum was a certain proportion of dimethyl sulfoxide in HP-β-cyclodextrin solution or a certain proportion of ethanol, polyethylene glycol 400 and physiological saline solution, the mixture was vortexed and subjected to ultrasonic treatment to prepare 2 mg/mL clear solution, then filtered with microporous membrane for later use; in the oral administration group, the menstruum was a certain proportion of dimethyl sulfoxide in HP-β-cyclodextrin solution or a certain proportion of sodium carboxymethyl cellulose solution, the test compound was mixed with the menstruum, vortexed and subjected to ultrasonic treatment to prepare 2 mg/mL homogeneous suspension for later use. After 2 mg/kg intravenous administration or 10 mg/kg oral administration to the Beagle dogs, a certain amount of whole blood samples were collected, centrifuged at 3000 g for 10 minutes, and the supernatant was separated to obtain plasma samples; then an acetonitrile solution containing internal standard with a volume 10 times that of the plasma sample was added to precipitate proteins, and then centrifuged; the supernatant was separated for analysis; LC-MS/MS analysis method was used to quantitatively analyze the blood drug concentration, and Phoenix WinNonlin software (Pharsight, USA) was used to calculate the pharmacokinetic parameters, such as peak concentration, time to peak concentration, clearance rate, half-life, area under the concentration-time curve, bioavailability, etc.
as §1

[3] = Solid stability test (XRPD and HPLC purity); format: physicochemical
Procedure: Samples placed under high temperature and high humidity conditions were sealed with aluminum foil paper and small holes were punched in the aluminum foil paper to ensure that the sample could fully contact with ambient air; […] Samples placed under high temperature (60° C.) and high humidity (92.5% humidity, room temperature) conditions were sampled and tested (XRPD and purity) on the 5th and 10th day. […] Samples placed under the condition of illumination were sampled and tested when the total illuminance reached 1.2×10^6 Lux·hr.

[4] = Hygroscopicity by dynamic vapor sorption (DVS); format: physicochemical; conditions: 25° C. and 80% RH
Procedure: Instrument model: Intrinsic dynamic vapor sorption instrument
Detection conditions: A sample (10-30 mg) was placed in a DVS sample tray for detection.
Balance: dm/dt=0.002%/min (shortest: 10 min, longest: 180 min)

[5] = 40° C., relative humidity 75%, opened, 30 days
[6] = 40° C., relative humidity 75%, opened, 60 days
[7] = 60° C., relative humidity 75%, opened, 30 days
[8] = 60° C., relative humidity 75%, opened, 60 days
[9] = High humidity (room temperature/relative humidity 92.5%, opened), 5 days
[10] = High humidity (room temperature/relative humidity 92.5%, opened), 10 days
[11] = High temperature (60° C., opened), 5 days
[12] = High temperature (60° C., opened), 10 days
[13] = Illumination (total illuminance 1.2 × 10^6 Lux · hr/near ultraviolet 200 w · hr/m^2, opened)

COCCN1C[C@@H](n2ccc(F)c2)[C@H](NC(=O)Nc2c(C)c(-c3cnc(C4(F)COC4)nc3)nn2-c2ccccc2)C1
AUC(0-inf) [1]: 276 µM·h
Cmax [1]: 48.5 µM
Tmax [1]: 45 min
bioavailability [1]: 70.5%
half-life [1]: 195 min
AUC(0-inf) [2]: 26.4 µM·h
Cmax [2]: 10.4 µM
Tmax [2]: 45 min
bioavailability [2]: 113%
half-life [2]: 57 min
Crystal form (XRPD) ([3]; 0 day (initial)): Crystal form E
Purity ([3]; 0 day (initial)): 98.75%
Crystal form (XRPD) [3, 5]: Crystal form E
Purity [3, 5]: 98.14%
Crystal form (XRPD) [3, 6]: Crystal form E
Purity [3, 6]: 98.06%
Crystal form (XRPD) [3, 7]: Crystal form E
Purity [3, 7]: 98.17%
Crystal form (XRPD) [3, 8]: Crystal form E
Purity [3, 8]: 98.22%
Crystal form (XRPD) [3, 9]: Crystal form E
Purity [3, 9]: 98.62%
Crystal form (XRPD) [3, 10]: Crystal form E
Purity [3, 10]: 98.72%
Crystal form (XRPD) [3, 11]: Crystal form E
Purity [3, 11]: 98.74%
Crystal form (XRPD) [3, 12]: Crystal form E
Purity [3, 12]: 98.74%
Crystal form (XRPD) [3, 13]: Crystal form E
Purity [3, 13]: 98.83%
Classification of hygroscopicity [4]: hygroscopic (15% > ΔW % ≥ 2%)
hygroscopic weight gain ΔW [4]: 6.228%
